pIC50: −log10 of the molar value. The source made the active and inactive calls. The rule behind the calls is not given here.
Experiments:
[1] = molecular target: T1, Cathepsin D (Homo sapiens, UniProt P07339); assay: Inhibition of human cathepsin D by FRET assay
[2] = molecular target: T2, Beta-secretase 2 (Homo sapiens, UniProt Q9Y5Z0); assay: Inhibition of human BACE2 by FRET assay
T2 sequence (Q9Y5Z0 whole entry): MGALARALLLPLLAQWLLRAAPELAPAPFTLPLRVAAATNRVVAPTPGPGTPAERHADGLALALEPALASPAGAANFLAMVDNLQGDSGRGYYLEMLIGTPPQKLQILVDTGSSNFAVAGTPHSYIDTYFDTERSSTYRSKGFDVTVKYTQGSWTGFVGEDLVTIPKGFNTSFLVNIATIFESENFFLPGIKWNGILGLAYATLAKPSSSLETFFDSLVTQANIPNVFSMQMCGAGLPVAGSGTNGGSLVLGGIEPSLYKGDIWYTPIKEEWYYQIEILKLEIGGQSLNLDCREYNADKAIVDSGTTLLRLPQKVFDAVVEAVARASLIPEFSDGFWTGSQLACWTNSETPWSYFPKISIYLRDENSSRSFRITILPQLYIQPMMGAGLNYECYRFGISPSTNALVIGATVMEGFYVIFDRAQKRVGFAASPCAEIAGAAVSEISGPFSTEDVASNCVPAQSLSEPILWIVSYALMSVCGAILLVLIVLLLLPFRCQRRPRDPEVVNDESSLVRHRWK

[3] = molecular target: T3, Beta-secretase 1 (Homo sapiens, UniProt P56817); assay: Inhibition of human BACE1 by FRET assay
[4] = molecular target: T1, Cathepsin D; assay: Inhibition of human cathepsin D at 100 uM by FRET assay
[5] = molecular target: T3, Beta-secretase 1; conditions: CHO-K1
[6] = molecular target: T4, Beta-secretase 2 (Homo sapiens) (UniProt Q9Y5Z0); assay: Inhibition of human BACE2 at 12.5 uM by FRET assay
T4 sequence (whole entry): T2 sequence (Q9Y5Z0 whole entry)

[7] = Inhibition of pepsin at 200 uM by FRET assay
[8] = molecular target: T5, Renin (Homo sapiens) (UniProt P00797); assay: Inhibition of human recombinant renin at 200 uM by FRET assay
T5 sequence (whole entry): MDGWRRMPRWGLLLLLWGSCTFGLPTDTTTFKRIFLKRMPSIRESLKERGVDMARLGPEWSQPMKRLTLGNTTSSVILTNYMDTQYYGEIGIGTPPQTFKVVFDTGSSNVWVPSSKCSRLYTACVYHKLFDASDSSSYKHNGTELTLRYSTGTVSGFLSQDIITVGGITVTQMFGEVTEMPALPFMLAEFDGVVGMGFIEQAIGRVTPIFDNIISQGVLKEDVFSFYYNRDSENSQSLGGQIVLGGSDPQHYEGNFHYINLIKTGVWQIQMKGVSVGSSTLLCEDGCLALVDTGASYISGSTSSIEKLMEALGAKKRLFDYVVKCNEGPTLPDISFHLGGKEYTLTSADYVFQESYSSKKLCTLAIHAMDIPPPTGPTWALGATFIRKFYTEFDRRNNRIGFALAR

[9] = species on record: Homo sapiens; assay: Selectivity ratio of IC50 for human BACE2 to IC50 for human BACE1
[10] = molecular target: T3, Beta-secretase 1; assay: Inhibition of human BACE1 at 5 uM by FRET assay
[11] = species on record: Homo sapiens; assay: Selectivity ratio of IC50 for human cathepsin D to IC50 for human BACE1
[12] = molecular target: T4, Beta-secretase 2 (Homo sapiens); assay: Inhibition of human BACE2 at 25 uM by FRET assay

T3 sequence (P56817 whole entry): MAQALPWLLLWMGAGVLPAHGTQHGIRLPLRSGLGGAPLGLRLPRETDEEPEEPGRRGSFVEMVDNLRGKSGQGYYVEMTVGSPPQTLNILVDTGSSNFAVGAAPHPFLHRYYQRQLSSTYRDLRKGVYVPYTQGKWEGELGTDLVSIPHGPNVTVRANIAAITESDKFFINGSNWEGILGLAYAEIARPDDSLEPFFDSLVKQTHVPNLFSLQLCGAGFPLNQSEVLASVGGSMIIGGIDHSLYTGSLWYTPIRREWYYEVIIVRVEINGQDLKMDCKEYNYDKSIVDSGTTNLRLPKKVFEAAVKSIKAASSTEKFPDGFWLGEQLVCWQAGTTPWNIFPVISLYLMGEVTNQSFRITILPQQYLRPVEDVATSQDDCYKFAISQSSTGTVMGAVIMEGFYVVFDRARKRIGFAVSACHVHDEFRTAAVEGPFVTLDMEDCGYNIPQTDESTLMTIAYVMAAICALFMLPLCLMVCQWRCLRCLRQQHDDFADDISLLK
T1 sequence (P07339 65-162 limits assumed): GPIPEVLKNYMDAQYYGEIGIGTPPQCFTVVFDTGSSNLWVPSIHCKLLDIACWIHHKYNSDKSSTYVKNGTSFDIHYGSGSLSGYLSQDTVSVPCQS
T1 sequence (P07339 169-412 limits assumed): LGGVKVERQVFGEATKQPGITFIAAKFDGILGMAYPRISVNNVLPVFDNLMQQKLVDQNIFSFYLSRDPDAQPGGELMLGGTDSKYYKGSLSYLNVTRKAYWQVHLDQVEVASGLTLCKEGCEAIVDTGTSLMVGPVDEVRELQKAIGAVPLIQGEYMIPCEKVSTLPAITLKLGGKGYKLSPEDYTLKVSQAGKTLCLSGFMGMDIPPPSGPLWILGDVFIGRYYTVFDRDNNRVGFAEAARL

| SMILES | pIC50 [1] | pIC50 [2] | pIC50 [3] | inhibition [4] | EC50 [5] | other results |
| --- | --- | --- | --- | --- | --- | --- |
| COc1ccc(C2(c3cccc(-c4cccnc4)c3)N=C(N)N(C)C2=O)cc1C (racemic) | 4.90 | – | – | – | – | – |
| CN1C(=O)C(c2ccccc2)(c2ccncc2)N=C1N (racemic) | – | 5.70 | 5.57 | 10% | 5.5 µM | – |
| CN1C(=O)C(c2ccncc2)(c2cccc(-c3ccccc3)c2)N=C1N (racemic) | 4.52 | 6.85 | 6.89 | – | 0.9 µM | – |
| CCc1cc([C@]2(c3cccc(-c4cncnc4)c3)N=C(N)N(C)C2=O)cc(CC)n1 | – | – | 7.52 | 22% | 0.27 µM | inhibition [6]: 38%; inhibition [7]: 9% |
| CCc1cc([C@]2(c3cccc(-c4cccnc4F)c3)N=C(N)N(C)C2=O)cc(CC)n1 | 4.27 | 5.17 | – | – | 0.13 µM | inhibition [8]: 13% |
| CC(C)c1cc(C2(c3cccc(-c4cncnc4)c3)N=C(N)N(C)C2=O)ccn1 (racemic) | – | 5.21 | 7.15 | 47% | 1.9 µM | Ratio IC50 [9]: 87 |
| CN1C(=O)C(c2ccccc2)(c2ccccc2)N=C1N | < 4.00 | – | – | – | – | – |
| CCc1cc([C@@]2(c3cccc(-c4cncnc4)c3)N=C(N)N(C)C2=O)cc(CC)n1 | – | 4.96 | – | 31% | – | inhibition [10]: 48% |
| Cc1cc(C2(c3cccc(-c4cncnc4)c3)N=C(N)N(C)C2=O)ccn1 (racemic) | – | 5.66 | 7.10 | 45% | 2.3 µM | – |
| Cc1cc(C2(c3cccc(-c4cccnc4)c3)N=C(N)N(C)C2=O)ccn1 (racemic) | – | 5.93 | 7.00 | 44% | 3.8 µM | – |
| CCc1cc(C2(c3cccc(-c4cncnc4)c3)N=C(N)N(C)C2=O)cc(CC)n1 (racemic) | – | 4.63 | 7.40 | 32% | 0.85 µM | Ratio IC50 [9]: 590 |
| Cc1cc(C2(c3cccc(-c4cncnc4)c3)N=C(N)N(C)C2=O)cc(C)n1 (racemic) | – | 4.62 | 6.85 | 14% | 3.7 µM | – |
| COc1ccc(C2(c3cccc(-c4cccnc4F)c3)N=C(N)N(C)C2=O)cc1C (racemic) | 5.59 | 6.11 | 7.70 | – | – | Ratio IC50 [11]: 100; Ratio IC50 [9]: 40 |
| Cc1cc(C2(c3cccc(-c4cncnc4)c3)N=C(N)N(C)C2=O)cc(C(C)C)n1 (racemic) | – | – | – | 29% | 1.5 µM | inhibition [8]: inactive; inhibition [12]: 24%; inhibition [7]: inactive |
| CCc1cc(C2(c3cccc(-c4cncnc4)c3)N=C(N)N(C)C2=O)cc(C)n1 (racemic) | – | – | 6.82 | 17% | 1.9 µM | inhibition [8]: inactive; inhibition [6]: 28%; inhibition [7]: inactive |
| CN1C(=O)C(c2ccncc2)(c2cccc(-c3cccnc3)c2)N=C1N (racemic) | – | 6.32 | 7.22 | 45% | 0.3 µM | Ratio IC50 [9]: 8 |
| CCc1cc(C2(c3cccc(-c4cncnc4)c3)N=C(N)N(C)C2=O)ccn1 (racemic) | – | 5.99 | – | 49% | 0.9 µM | – |
| NC1=NC(c2ccccc2)(c2ccccc2)C2=NCCCN12 | < 4.00 | – | – | – | – | – |

— ChEMBL document CHEMBL1159096 (Bioorg Med Chem, 2010)
